Results as given in patent publication US11419335B2, “N-arylated analogues and uses thereof” (University of Florida Research Foundation, Incorporated, priority 2016, dated 2022).
Marks after values point to notes of the source that are not given here.

Tests used:
[1] = system: Escherichia coli clinical isolate (UAEC-1); test: MIC broth microdilution, UAEC-1; format: cell-based; details: for MIC: Table 1; for MIC UAEC-1: Table 4
Method: (§1) The minimum inhibitory concentration (MIC) for each tested compound was determined by the broth microdilution method as recommended by the Clinical and Laboratory Standards Institute (CLSI). In a 96-well plate, eleven two-fold serial dilutions of each compound were made in a final volume of 100 μL Luria Broth. Each well was inoculated with ˜10^5 bacterial cells at the initial time of incubation, prepared from a fresh log phase culture (OD600 of 0.5 to 1.0 depending on bacterial strain). The MIC was defined as the lowest concentration of compound that prevented bacterial growth after incubating 16 to 18 hours at 37° C. (MIC values were supported by spectrophotometric readings at OD600). DMSO served as our vehicle and negative control in each microdilution MIC assay. DMSO was serially diluted with a top concentration of 1% v/v.
as §1, with “for each compound was” for “for each tested compound was”, “Standards Institute (CLSI).^6 In a” for “Standards Institute (CLSI). In a”, “concentration of test compound that” for “concentration of compound that”, “37° C. The concentration range tested for each compound during this study was 0.10 to 100 μM. DMSO served” for “37° C. (MIC values were supported by spectrophotometric readings at OD600). DMSO served”, “1% v/v. All MIC values were obtained from a minimum of three independent experiments.” for “1% v/v.”

MRSA BAA-1707 biofilms [2] = test: Calgary Biofilm Device assay (MBC/MBEC), MRSA BAA-1707; format: cell-based, Staphylococcus aureus
Method: (§2) The lid of the Calgary device was then removed, washed and transferred to another 96-well plate containing 2-fold serial dilutions of the test compounds (the “challenge plate”). The total volume of media with compound in each well in the challenge plate is 150 μL. […] The lid was then removed from the challenge plate and MBC/MBEC values were determined using different final assays. […] The MBC values were determined as the concentration giving a lack of visible bacterial growth (i.e., turbidity). […] In select experiments, pegs from the Calgary device were removed from lead biofilm eradicators after final incubation, sonicated for 30 minutes in PBS and plated out to determine biofilm cell killing of lead biofilm-eradicating agents (i.e., colony forming unit per milliliter, CFU/mL).
(§3) Using a Calgary Biofilm Device, bacterial biofilms are established on pegs suspended to the bottom of a 96-well plate lid. Following biofilm establishment on lid pegs, lids are then transferred to new 96-well plates containing serial dilutions of test compound and allowed to incubate. After compound treatment, 96-well plate lids with pegs are once again transferred to 96-well plates containing fresh media. During this final phase of the assay, viable biofilms will grow and disperse planktonic cells into the media where they will grow and give a turbid well result. Conversely, wells that have no growth are a result of pegs that had eradicated bacterial biofilms. The lowest concentration at which no turbidity is observed is the minimum biofilm eradication concentration (MBEC). Using the Calgary Biofilm Device, both minimum biofilm eradication concentrations and minimum bactericidal concentrations (MBC) for planktonic bacterial can be determined using one assay from a single bacterial culture (FIG. 3A).

[3] = system: MRSA BAA-1707 stationary cultures; test: MRSA persister cell kill kinetics (stationary cultures); format: cell-based, Staphylococcus aureus; details: 50 μM; after 90 minutes
Method: (§4) An overnight culture of MRSA BAA-1707 was diluted in fresh TSBG (1:13 to 1:20 fold) and allowed to grow with shaking. Once the culture reached stationary phase (4-6 hours), test compounds were added at a final test concentration of 50 μM. The cultures were incubated with shaking at 250 rpm and aliquots were removed and plated out at predetermined time points. Colony forming units (CFU) per milliliter data was recorded and plotted using Graphpad Prism 6.0.
The panel of membrane-active compounds was also evaluated head-to-head at 50 μM against MRSA BAA-1707 stationary cultures in kinetic killing experiments. Stationary cultures of S. aureus have elevated populations of metabolically dormant persister cells^36,37 and using this experiment, we could get multiple early time points to see if 1 and 2 were rapid killers of MRSA persister cells.
as §4, with “different” for “predetermined”

MRSA BAA-1707 biofilms [4] = test: Live/Dead staining of MRSA biofilms; format: cell-based, Staphylococcus aureus
Method: A mid-log culture of MRSA BAA-1707 was diluted 1:1000-fold and 500 μL was transferred to each compartment of a four-compartment CELLview dish (Greiner Bio-One 627871). The dish was then incubated for 24 hours at 37° C. to establish MRSA-1707 biofilms. After this time, the cultures were removed and the plate was washed with 0.9% saline. The dish was then treated with test compounds in fresh media at various concentrations. DMSO was used as a negative control in this assay. The dish was incubated with the test compound for 24 hours at 37° C. After this time, the cultures were removed and the dish was washed with 0.9% saline for 2 minutes. Saline was then removed and 500 μL of the stain (Live/Dead BacLight Viability Kit, Invitrogen) were added for 15 minutes and left in the dark. After this time, the stain was removed and the dish was washed twice with 0.9% saline. Then the dish was fixed with 500 μL 4% paraformaldehyde in PBS for 30 minutes. Images of remaining MRSA biofilms were then taken with a fluorescence microscope.

MRSA-2 biofilms = test: Calgary Biofilm Device assay (MBC/MBEC), MRSA-2; format: cell-based, Staphylococcus aureus; details: Table 2A; CBD assay
Method: as §2, §3

C. neoformans ATCC 66031 = test: Minimum fungicidal concentration assay, C. neoformans; format: cell-based; details: Table 2B

Compound	MIC UAEC-1 [1]	MRSA BAA-1707 MBC (MRSA BAA-1707 biofilms [2]; Table 2A, CBD assay)	MRSA BAA-1707 MBEC (MRSA BAA-1707 biofilms [2]; Table 2A, CBD assay)	MRSA-2 MBC (MRSA-2 biofilms)	MRSA-2 MBEC (MRSA-2 biofilms)	C. neoformans 66031 MBC (C. neoformans ATCC 66031)	also measured
CCCCCCCCCCCCCCCCn1cc[n+](Cc2ccccc2)c1C [NH125, 3-benzyl-1-hexadecyl-2-methyl-1H-imidazol-3-ium bromide, reference compound]	18.8a micromolar						MIC ([1]; Escherichia coli): 18.8 µM; minimum biofilm eradication concentration (MBEC), MRSA BAA-1707 biofilms (MRSA BAA-1707 biofilms [2]): 46.9 µM; MBC (MRSA BAA-1707 biofilms [2]; Staphylococcus aureus, Table 2, CBD assay, planktonic cells): 23.5 µM; MRSA BAA-1707 MBEC (MRSA BAA-1707 biofilms [2]; Table 2, CBD assay, biofilm): 46.9 µM; reduction of viable biofilm cells (MRSA BAA-1707 biofilms [2]; at 62.5, colony counts of CBD pegs, MRSA BAA-1707): 3 to 4 log; reduction of stationary MRSA cells [3]: ~1 logs; clearance of MRSA biofilms (fluorescence images) (MRSA BAA-1707 biofilms [4]; FIG. 4, 24 hours after treatment): potent clearance of MRSA biofilms; clearance of established biofilms (Live/Dead staining) (MRSA BAA-1707 biofilms [4]; at 31.3 μM): effective clearance of established biofilms
CCCCCCCCCCCCCCCCn1cc[n+](C)c1C.[I-] [Compound 8]	12.5 µM	11.7^a/ μM	31.3 µM	11.7 µM	23.5 µM	6.25 µM	
CCCCCCCCCCCCCCCCn1cc(-c2ccccc2)[n+](C)n1.[I-] [Compound 30]		11.7^a/ μM	23.5^a μM	31.3^b/31.3 μM	31.3^b/31.3 μM		
CCCCCCCCCCCCCCCCn1cc[n+](Cc2cccc(F)c2)c1C.[Br-] [Compound 18]				93.8^a/93.8^a μM	93.8^a/93.8^a μM		
CCCCCCCCCCCCCCCC[N+](C)(C)Cc1ccccc1.[Cl-] [BAC-16, reference compound]	6.25 µM					6.25 µM	
CCCCCCCCCCCC[N+](C)(C)CC[N+](C)(C)CC[N+](C)(C)CCCCCCCCCCCC [QAC-10, reference compound]	12.5 µM	93.8^a/ μM	93.8^a μM	31.3 µM	125 µM		MIC [1]: 12.5 µM; MRSA BAA-1707 MBEC (MRSA BAA-1707 biofilms [2]; Table 2, CBD assay, biofilm): 93.8^a/93.8^a μM; MRSA BAA-1707 MBC (MRSA BAA-1707 biofilms [2]; Table 2, CBD assay, planktonic cells): 93.8^a/93.8^a μM
CCCCCCCCCCCCCCCCn1cc[n+](CCO)c1C.[Br-] [Compound 11]	12.5 µM	23.5^a/ μM	46.9^a μM	11.7 µM	31.3 µM	3.13 µM	
